Entries after “also recorded” stand apart in the source; their conditions may differ.
Tests used:
ddY strain mice [1] = test: Recovery from hyperglycemia in Alloxan-induced diabetes; type: in vivo, mouse (female ddY strain); conditions: one week after Alloxan 80 mg/kg i.v.; FIG. 5
Method: After Alloxan (80 mg/kg) was intravenously administered to female ddY strain mice of 4 week age showing a mean body weight of 25 g, 0.2 ml of vitamin E solution (dissolved in liquid paraffin in a concentration of 5%) was intramuscularly injected per mouse once a day from the next day and 0.2 ml of R-345 (dissolved in physiological saline in a concentration of 2 wt %) was intraperitoneally injected. In the control group, 0.2 ml of physiological saline was intraperitoneally injected per mouse. Blood sugar level was measured one week after administration of Alloxan.

ddY strain mice [2] = test: Reducing radiation injury (X rays 800 roentgen): survival days of mice; type: in vivo, mouse (female ddY strain); conditions: for mice survived longer than 30 days / mice survived on Day 15 / average number of survival days: X rays 800 roentgen, FIG. 3; for mice survived longer than 30 days: 20 mice, R-345 285 mg/kg i.v. and/or vitamin E 200 mg/kg i.m.; for mice survived on Day 15: R-345 285 mg/kg i.v. 3 times and/or vitamin E 200 mg/kg i.m. 3 times; for average number of survival days: survival longer than 30 days counted as 30 days, control 8.7 days
Method: Female ddY strain mice of 4 week age having a mean body weight of 25 g were exposed to X rays of 800 roentgen to examine the number of survival days (dose of LD50 for 30 days was 407 to 466 roentgen).
R-345 (285 mg/kg) was intravenously administered through the tail immediately before exposure to radiation, and on Days 1 and 3 (3 times in total). […] With respect to a mouse survived longer than 30 days, the number of survival days was counted as 30 days to determine the average number of survival days.
Vitamin E (200 mg/kg) was intramuscularly administered 3 days and 1 day before exposure to radiation, and immediately before the exposure (3 times in total).

erythrocyte membrane = test: Inhibition of tert-butyl hydroperoxide-induced peroxidation of erythrocyte membrane (thiobarbituric acid); type: biochemical, human; conditions: for amount of lipid peroxide / formation of peroxide: human red ghost, tert-butyl hydroperoxide, 37° C., 30 minutes, 535 nm (FIG. 1)
Source text: Human blood cells were subjected to hemolysis and red ghost (membrane segments containing hemoglobin) was collected by a centrifuging machine. […] The reaction product was quantitatively determined by colorimetry at 535 nm.

ddY strain mice [3] = test: Reducing toxicity of Adriamycin: survival days of mice; type: in vivo, mouse (female ddY strain); conditions: after Adriamycin; for prolongation of survival days: conclusion; for incidence of death versus control group: vitamin E 200 mg/kg i.p. 4 times or R-345 30 mg/kg i.p. 4 times
liver = test: Reducing liver toxicity by organic halogen compounds (CCl4 :CHCl3); type: in vivo, mouse (female ddY strain); conditions: for calcium content in liver: over 3 days after CCl4 :CHCl3, FIG. 4b; for TBA value (lipid peroxide) in liver: Day 1 after CCl4 :CHCl3, FIG. 4a
Method: In liquid paraffin were dissolved 0.0025 ml of carbon tetrachloride (CCl4) and 0.0050 ml of chloroform (CHCl3) to form 0.1 ml of a solution. The solution was intraperitoneally administered to female ddY strain mice of 4 week age having a mean body weight of 25 g. With passage of day, concentration of lipid peroxide (TBA value, by thiobarbituric acid reaction), calcium concentration and a ratio of saturated fatty acids to unsaturated fatty acids (as an index of fatty liver), in liver were measured over 3 days. […] Ascorbic acid (AsA) and R-345 (4 mg each was dissolved in 0.1 ml of physiological saline, respectively) were intraperitoneally administered once a day every day from 6 hours after CCl4 :CHCl3 was administered to the day before the mice were sacrificed.

[4] = intraperitoneal administration to female ddY mice in this test; cited from earlier work
Stability in water = type: physicochemical
[5] = Oxidation of the reducing agent by tert-butyl hydroperoxide (absorption intensity); type: physicochemical; conditions: addition of tert-butyl hydroperoxide

Molecule | blood sugar level (ddY strain mice [1]) | mice survived longer than 30 days (ddY strain mice [2]) [mice] | mice survived on Day 15 (ddY strain mice [2]) | average number of survival days (ddY strain mice [2]) [days] | amount of lipid peroxide / formation of peroxide (erythrocyte membrane) | prolongation of survival days (ddY strain mice [3]) | incidence of death versus control group (ddY strain mice [3]) | calcium content in liver (liver) | oxidation by tert-butyl hydroperoxide [5] | TBA value (lipid peroxide) in liver (liver) | further results
vitamin E | somewhat higher than normal level | 2 | 2 out of 20 | 11.8 | exhibited the activity of inhibiting the formation of peroxide | only a slight prolongation | almost the same incidence as noted with the control group | not lowered to normal level |  |  | mice survived longer than 31 days (ddY strain mice [3]; vitamin E 200 mg/kg i.p. 4 times, FIG. 2c): None; prevention of increase in TBA value (lipid peroxide level) (liver; CCl4 :CHCl3): effect of preventing increase in TBA value (lipid peroxide level) was noted; prevention of increase of calcium level (liver; CCl4 :CHCl3): not noted; prevention of increase in TBA value (lipid peroxide level) (liver; CCl4 :CHCl3, listed as VE): effective for preventing the increase in TBA value; also recorded: prevented an increase in TBA value; recovery of ratio of saturated fatty acid to unsaturated fatty acid in liver (liver; Day 2 after CCl4 :CHCl3, FIG. 4c): recovery would be slower than in the group administered with no VE; recovery to normal level of calcium content on Day 3 (liver; Day 3 after CCl4 :CHCl3, conclusion): a tendency to delay the recovery to normal level
COc1cccc2c1C(=O)c1c(O)c3c(c(O)c1C2=O)C[C@@](O)(C(=O)CO)C[C@@H]3O[C@H]1C[C@H](N)[C@H](O)[C@H](C)O1 [Adriamycin] |  |  |  |  |  |  |  |  |  |  | LD50 [4]: 14 mg/kg
O=C1OC(CO)C(=O)C(O)=C1O (centres unmarked) [R-345, 2,3,6-trihydroxy-4-oxo-2-hexen-5-olide] | somewhat higher than normal level | 2 | 3 out of 20 | 12.9 | exhibited the activity of inhibiting the formation of peroxide | only a slight prolongation | a slight difference was observed | almost recovered to normal level | hardly oxidized | almost the same as in the control group | decomposition in water over a long period of time (Stability in water): tends to be decomposed some or less; reduction in absorption intensity at 345 nm [5]: slight; increase in average number of survival days compared with the control group (ddY strain mice [2]; R-345 285 mg/kg i.v. 3 times): slight increase; activity of alleviating erythrocyte membrane disturbance induced by a peroxidant, versus ascorbic acid (erythrocyte membrane; conclusion): more effective than ascorbic acid; mice survived longer than 50 days (ddY strain mice [3]; i.p., 10 mice, R-345 30 mg/kg and/or vitamin E 200 mg/kg, FIG. 2): 2 mice; mice died up to about Day 20 (ddY strain mice [3]; R-345 30 mg/kg i.p. 4 times, FIG. 2b): 8 out of 10; increase in TBA value, calcium content and increase in neutral fat versus control group or vitamin E alone (liver; conclusion): reduced as compared to the control group or the group administered with vitamin E alone
O=C1O[C@H]([C@@H](O)CO)C(O)=C1O [ascorbic acid] |  |  |  |  | increased |  |  | not lowered to normal level | immediately oxidized | particularly high TBA value was noted in some cases | reduction in absorption intensity at 265 nm [5]: markedly reduced; TBA value (lipid peroxide) in liver (liver; listed as AsA): some were higher than in the group administered with physiological saline (control group)
